# Source: patent publication US11372007B2, “Method of detecting biological material, and chemiluminescent indicator used therein” (Osaka University, priority 2017, dated 2022)
# How the values were obtained:
# UnaG protein = UnaG protein (wild type; UniProtKB/Swiss-Prot: P0DM59.1, GenBank: AB763906.1); conditions: indirect bilirubin; Kumagai et al., Cell 2013, 153, 1602-1611; read-out: dissociation constant; cited from earlier work
# [1] = molecular target: T1, UnaG (CΔ0)-NLuc (NΔ1) fusion protein (wild-type chemiluminescent bilirubin indicator, linker GT), SEQ ID NO: 12 (Anguilla japonica, UniProt P0DM59); assay: titration curve of the wild-type chemiluminescent bilirubin indicator with bilirubin (luminescence spectra, Hill fit); format: binding
# T1 construct: made in house; host or cells: E. coli JM109 (DE3)
# Protocol: The base sequence of this UnaG (CΔ0)-NLuc (NΔ1) fusion protein is represented by SEQ ID NO: 11, and the amino acid sequence of the same is represented by SEQ ID NO: 12.
# The JM109 (DE3) strain transformed with the UnaG (CΔ0)-NLuc (NΔ1) fusion protein was cultured at 23° C. for 60 hours in 200 mL of LB medium containing 100 μg/mL Carvenisillin solution. After harvesting, the E. coli cells were disrupted by the French press method and purified by affinity chromatography using a Ni-NTA column (QIAGEN). Furthermore, in order to remove excess imidazole, a gel filtration column (PD-10, GE HealthCare) was used. The protein concentration was measured by the Bradford method.
# 500 μL of the purified UnaG (CΔ0)-NLuc (NΔ1) fusion protein was added to a 15-mL Falcon tube and frozen with liquid nitrogen. Thereafter, a powder of the protein solution was obtained by a lyophilizer. […]
# 0.01 nM, 0.05 nM, 0.1 nM, 0.5 nM, 1 nM, 2.5 nM, 5 nM, or 10 nM bilirubin (BR) solution and Coelenterazine-h at a final concentration of 5 μM were mixed with the UnaG(CΔ0)-NLuc(NΔ1) fusion protein at a final concentration of 5 nM, and luminescence spectra were measured using a multichannel spectroscope (PMA-12, manufactured by Hamamatsu Photonics K.K.) or a plate reader. […] Mean values of measured values obtained by three independent measurements were plotted, and then fitted as per the Hill equation. […]
# T1 sequence (P0DM59 with tags, fused parts or gaps): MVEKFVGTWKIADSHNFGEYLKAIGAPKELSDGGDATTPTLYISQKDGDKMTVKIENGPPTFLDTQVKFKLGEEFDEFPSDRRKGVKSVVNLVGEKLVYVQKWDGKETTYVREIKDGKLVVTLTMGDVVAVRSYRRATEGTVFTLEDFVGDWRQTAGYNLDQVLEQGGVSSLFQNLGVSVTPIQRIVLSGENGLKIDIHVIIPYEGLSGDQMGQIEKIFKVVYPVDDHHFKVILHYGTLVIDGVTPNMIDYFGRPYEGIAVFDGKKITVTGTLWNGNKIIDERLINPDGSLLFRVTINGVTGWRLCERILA
Structure (SMILES),Kd (UnaG protein) [nM],"Kd ([1]; fusion protein 5 nM, bilirubin 0.01-10 nM, Coelenterazine-h 5 μM, mean of three independent measurements, fitted as per the Hill equation) [nM]","affinity for bilirubin (dissociation constant, Kd value), change on storage ([1]; lyophilized sample dissolved in water, stored at room temperature)"
C=CC1=C(C)/C(=C/c2[nH]c(Cc3[nH]c(/C=C4\NC(=O)C(C)=C4C=C)c(C)c3CCC(=O)O)c(CCC(=O)O)c2C)NC1=O [indirect bilirubin],0.098,,
C=CC1=C(C)/C(=C/c2[nH]c(Cc3[nH]c(/C=C4\NC(=O)C(C)=C4C=C)c(C)c3CCC(=O)O)c(CCC(=O)O)c2C)NC1=O [bilirubin],,3.05,the affinity was slightly reduced
